From paper PMC9933715 (Antimicrobial Agents and Chemotherapy, 2023)
“Also recorded” adds a separate entry of the source. Read-outs that look alike come from different tables or passages of the source.

Experiments:
[1] = system: ZIKV-R2A (strain FSS13025); assay: microbe, parasite or virus in culture; assay type: cell-based; details: Zika virus, Huh7.5, 48 h; for EC50: read-out: EC50 ZIKV-R2A FSS13025; for activity at 50 µM: read-out: ZIKV-R2A replication (fold DMSO) Mean
[2] = system: DENV-R2A (Rluc-expressing DENV, serotype 2 strain 16681); assay: microbe, parasite or virus in culture; assay type: cell-based, Dengue virus; details: for decrease of viral replication (DENV-R2A): 50 μM, Huh7.5, 2 days postinfection, vs DMSO; for activity at 50 µM / EC50: Dengue virus, Huh7.5, 48 h; for EC50: read-out: EC50 DENV-R2A
Huh7.5 cells [3] = assay: Cell viability, CellTiter-Glo luminescent assay; details: for cell viability / cytotoxicity at the used concentration: Huh7.5; for Cell viability (fold DMSO) Mean: deconvolution screen, singletons, 50 µM, uninfected Huh7.5
[4] = Cell viability, CellTiter-Glo luminescent assay; details: human, CC50 Huh 7.5, uninfected Huh7.5, 2 days, CellTiter-Glo
HCV, strain JFH-1 = assay type: cell-based, hepatitis C virus; details: 50 μM, JFH-1-Luc, Huh7.5, 2 days
ZIKV H/PF/2013 = assay: Infectious viral titer by plaque assay, ZIKV in Huh7.5 cells; assay type: cell-based, Zika virus; details: 50 μM, MOI 0.1, Huh7.5, 2 days postinfection
[5] = system: DENV vesicle packets (VP); assay: Replication-independent vesicle packet induction (pIRO-D) in Huh7/Lunet-T7 cells, TEM, western blot, immunofluorescence; details: 50 μM for 12 h, pIRO-D-transfected Huh7/Lunet-T7
DENV2 16681s [6] = assay: Intracellular DENV vRNA (RT-qPCR) and NS4B (western blot) in infected Huh7.5 cells; assay type: cell-based, Dengue virus; details: 50 μM, MOI 0.1, Huh7.5, 2 days postinfection
[7] = target: ZIKV NS3/NS4B interaction (Zika virus, UniProt A0A024B7W1); assay: Coimmunoprecipitation assay of NS3/NS4B interaction; details: unpublished data
SARS-CoV-2 = assay type: cell-based
MHV-A59 = assay: Infectious viral titer by plaque assay, MHV-A59 in DBT cells; assay type: cell-based, mouse hepatitis virus; details: 50 μM, MOI 0.0001, 1 day postinfection
DENV-R2A = assay type: cell-based, Dengue virus; details: 50 μM
WNV NY99 = assay: Extracellular infectious titer by plaque assay, WNV in Huh7.5 cells; assay type: cell-based, West Nile virus; details: 50 μM
DENV2 16681s [8] = assay: Infectious viral titer by plaque assay, wild-type DENV2 in Huh7.5 cells; assay type: cell-based, Dengue virus; details: 50 μM, MOI 0.1, Huh7.5, 2 days postinfection
sg-DENV-R2H = assay: Resistance selection with selectable subgenomic replicon sg-DENV-R2H in Huh7.5 cells; assay type: cell-based, Dengue virus; details: 100 µM, hygromycin 500 µg/mL, 31 days of dual selection
murine cancer model = details: cited from earlier work
Huh7.5 cells [9] = system: Huh7.5 cells; design: method as in PMID 34152811; details: same experimental set-up; cited from earlier work
[10] = system: ZIKV-R2A (strain FSS13025); details: same experimental set-up; cited from earlier work
[11] = system: DENV-R2A (Rluc-expressing DENV, serotype 2 strain 16681); details: same experimental set-up; cited from earlier work
[12] = read-out: DENV-R2A replication (fold DMSO) Mean, deconvolution screen, singletons, 50 µM, Huh7.5, 2 days postinfection
[13] = added up to 8 h after infection, read 2 days postinfection

Chain of ZIKV NS3/NS4B interaction (A0A024B7W1 1503-2119): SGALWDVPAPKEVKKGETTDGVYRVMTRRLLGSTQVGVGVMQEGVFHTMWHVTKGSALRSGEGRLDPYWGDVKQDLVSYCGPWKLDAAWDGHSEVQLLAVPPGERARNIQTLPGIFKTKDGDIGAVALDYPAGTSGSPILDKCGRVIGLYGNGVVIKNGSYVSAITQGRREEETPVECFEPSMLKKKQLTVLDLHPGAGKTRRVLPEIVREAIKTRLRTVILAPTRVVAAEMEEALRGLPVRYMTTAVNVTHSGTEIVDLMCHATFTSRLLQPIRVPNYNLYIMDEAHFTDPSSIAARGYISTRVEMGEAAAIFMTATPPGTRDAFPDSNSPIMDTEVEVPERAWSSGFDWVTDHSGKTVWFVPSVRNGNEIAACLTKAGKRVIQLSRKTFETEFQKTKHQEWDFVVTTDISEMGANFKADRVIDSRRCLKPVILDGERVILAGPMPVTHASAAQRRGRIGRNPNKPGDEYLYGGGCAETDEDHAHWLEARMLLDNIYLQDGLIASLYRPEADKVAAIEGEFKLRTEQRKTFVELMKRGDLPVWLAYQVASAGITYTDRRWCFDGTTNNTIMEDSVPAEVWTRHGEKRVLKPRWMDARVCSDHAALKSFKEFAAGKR
Chain of ZIKV NS3/NS4B interaction (A0A024B7W1 2270-2520): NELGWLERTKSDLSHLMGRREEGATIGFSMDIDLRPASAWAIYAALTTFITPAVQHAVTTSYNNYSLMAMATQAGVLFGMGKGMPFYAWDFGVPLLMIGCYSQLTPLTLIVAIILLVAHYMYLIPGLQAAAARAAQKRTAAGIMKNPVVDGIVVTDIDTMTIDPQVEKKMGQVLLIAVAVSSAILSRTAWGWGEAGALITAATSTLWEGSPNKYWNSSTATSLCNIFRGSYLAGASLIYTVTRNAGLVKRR

CC(=O)c1ccc2cn[nH]c2c1 [Compound 6A1HI, 6-acetyl-1H-indazole]
EC50 [1]: 69.3 µM
activity at 50 µM [1]: 29%
decrease of viral replication (DENV-R2A) [2]: 714 fold
activity at 50 µM ([2]; read-out: DENV-R2A replication (Fold DMSO), 6A1HI analogues, test concentration = 50 µM, Huh7.5 cells): 3.77%
activity at 50 µM [2, 12]: 0.244%
activity at 50 µM ([2]; read-out: DENV-R2A replication (fold DMSO), Table 2, 6A1HI analogues, 50 μM, Huh7.5, 2 days postinfection): 4%
EC50 [2]: 6.5 µM
cell viability / cytotoxicity at the used concentration (Huh7.5 cells [3]; 50 μM): unaffected
cell viability / cytotoxicity at the used concentration (Huh7.5 cells [3]; 50 μM, listed as 6A1H1): without any cytotoxicity
Cell viability (Fold DMSO) (Huh7.5 cells [3]; 6A1HI analogues, test concentration = 50 µM, Huh7.5 cells): 0.93 Fold DMSO
Cell viability (Fold DMSO) (Huh7.5 cells [3]; Table 2, 6A1HI analogues, 50 μM, Huh7.5, 2 days): 0.93 fold DMSO
Cell viability (fold DMSO) Mean (Huh7.5 cells [3]): 0.80 fold DMSO
CC50 (Huh7.5 cells [3]; read-out: CC50 Huh 7.5, uninfected Huh7.5, 2 days, CellTiter-Glo): 177 µM
CC50 at 48 h [4]: > 150 µM
impact on HCV replication (HCV, strain JFH-1): Only moderate impacts (if any)
reduction in ZIKV viral titers (ZIKV H/PF/2013): 2 fold
levels of viral protein NS3 (western blot) [5]: remained unchanged
intracellular levels of DENV vRNA and NS4B (DENV2 16681s [6]): decrease
formation and stability of ZIKV NS3/NS4B interaction [7]: do not inhibit
anti-SARS-CoV-2 activity (reduction) (SARS-CoV-2): less than 10 fold
impact on SARS-CoV-2 (betacoronavirus) replication (SARS-CoV-2; 50 μM, Huh7.5): Only moderate impacts (if any)
impact on MHV replication (MHV-A59): Only moderate impacts (if any); also recorded: did not impede
inhibitory activity when added after infection (DENV-R2A; added 4 h after infection): retain their full inhibitory activity
inhibitory activity when added after infection (DENV-R2A; [13]): retained a strong inhibitory activity
impact on WNV replication (WNV NY99; Huh7.5): Only moderate impacts (if any)
decrease of infectious DENV particle production / DENV titers (DENV2 16681s [8]): more than 100 fold
decrease of released infectious virions (plaque assay) (DENV2 16681s [8]): ~3 Log10-fold
decrease of infectious DENV particle production / DENV titers (DENV2 16681s [8]; listed as 6A1H1): up to 1,000 fold
selection of resistant cells (genetic barrier to resistance) (sg-DENV-R2H): unable to select resistant cells

NC(=O)c1ccccc1NC(=O)c1ccc(-c2ccccc2)cc1 [N-(2-[aminocarbonyl]phenyl) (1,1′-biphenyl)-4-carboxamide]
efficacy in in vivo murine cancer model (murine cancer model): effective
toxicity in in vivo murine cancer model (murine cancer model): without observable toxicity

O=C(Nc1ccccc1)c1cccnc1 [NPP3C, N-phenylpyridine-3-carboxamide]
EC50 [1]: 15.3 µM
activity at 50 µM [1]: 27%
decrease of viral replication (DENV-R2A) [2]: 55 fold
activity at 50 µM ([2]; read-out: DENV-R2A replication (Fold DMSO), Table S3, NPP3C analogues, 50 µM, Huh7.5, 2 days postinfection): 1.31%
activity at 50 µM [2, 12]: 2.38%
activity at 50 µM ([2]; read-out: DENV-R2A replication (fold DMSO), Table 1, NPP3C analogues, 50 μM, Huh7.5, 2 days postinfection): 1%
EC50 [2]: 7.1 µM
cell viability / cytotoxicity at the used concentration (Huh7.5 cells [3]; 50 μM): unaffected
impact on HCV replication (HCV, strain JFH-1): did inhibit
reduction in ZIKV viral titers (ZIKV H/PF/2013): ~15 fold
levels of viral protein NS3 (western blot) [5]: remained unchanged
intracellular levels of DENV vRNA and NS4B (DENV2 16681s [6]): decrease
formation and stability of ZIKV NS3/NS4B interaction [7]: do not inhibit
anti-SARS-CoV-2 activity (reduction) (SARS-CoV-2): less than 10 fold
impact on MHV replication (MHV-A59): did not impede
inhibitory activity when added after infection (DENV-R2A; added 4 h after infection): retain their full inhibitory activity
inhibitory activity when added after infection (DENV-R2A; [13]): retained a strong inhibitory activity
decrease of WNV extracellular infectious titers (WNV NY99; MOI 0.1, Huh7.5, 2 days postinfection): 22 fold
abundance of released virions (plaque assay) (DENV2 16681s [8]): reduced

CSc1ccccc1N1CCNCC1 [SS-4074, CSc1ccccc1N2CCNCC2]
activity at 50 µM [1]: 100%
activity at 50 µM [2, 12]: 79%
Cell viability (fold DMSO) Mean (Huh7.5 cells [3]): 0.92 fold DMSO

COc1ccc2cc[nH]c2n1 [SS-4327, COc1ccc2cc[nH]c2n1]
activity at 50 µM [1]: 108%
activity at 50 µM [2, 12]: 98%
Cell viability (fold DMSO) Mean (Huh7.5 cells [3]): 1.01 fold DMSO

O=C(O)[C@@H](O)c1ccc(Br)cc1 [SS-4660, O[C@H](C(=O)O)c1ccc(Br)cc1]
activity at 50 µM [1]: 102%
activity at 50 µM [2, 12]: 104%
Cell viability (fold DMSO) Mean (Huh7.5 cells [3]): 1.10 fold DMSO

Nc1cncnc1 [SS-6051, Nc1cncnc1]
activity at 50 µM [1]: 105%
activity at 50 µM [2, 12]: 104%
Cell viability (fold DMSO) Mean (Huh7.5 cells [3]): 0.96 fold DMSO

COc1cc2c(cc1O)CN(C)C[C@H]2c1ccc(O)cc1 [cherylline]
CC50 (Huh7.5 cells [9]): > 250 µM
EC50 [10]: 20.3 µM
EC50 [11]: 8.8 µM
